{"source": "patent US20090093460A1", "about": "“Compositions” (AstraZeneca AB, priority 2003, published 2009)", "key": {"[1]": {"target": "T1, dopamine D1 receptor (Homo sapiens, UniProt P21728)", "T1 construct": "from tissue; host or cells: brain", "T1 sequence (P21728 whole entry)": "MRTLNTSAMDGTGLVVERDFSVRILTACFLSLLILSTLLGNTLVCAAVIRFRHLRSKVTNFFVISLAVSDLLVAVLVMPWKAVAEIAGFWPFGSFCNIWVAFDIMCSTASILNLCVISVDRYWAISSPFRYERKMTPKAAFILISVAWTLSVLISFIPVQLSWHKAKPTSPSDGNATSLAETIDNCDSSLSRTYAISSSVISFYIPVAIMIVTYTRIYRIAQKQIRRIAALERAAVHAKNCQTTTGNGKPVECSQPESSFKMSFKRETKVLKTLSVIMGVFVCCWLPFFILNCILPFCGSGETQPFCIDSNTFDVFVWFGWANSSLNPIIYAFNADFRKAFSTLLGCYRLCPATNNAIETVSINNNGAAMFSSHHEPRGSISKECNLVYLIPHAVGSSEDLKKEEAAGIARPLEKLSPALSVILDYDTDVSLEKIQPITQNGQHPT", "experiment": "In vitro binding, dopamine D1 receptor", "conditions": "dihydrochloride salt; read-out: binding affinity K1"}, "[2]": {"target": "dopamine D2 receptor (Homo sapiens, UniProt P14416)", "sequence (P14416 whole entry)": "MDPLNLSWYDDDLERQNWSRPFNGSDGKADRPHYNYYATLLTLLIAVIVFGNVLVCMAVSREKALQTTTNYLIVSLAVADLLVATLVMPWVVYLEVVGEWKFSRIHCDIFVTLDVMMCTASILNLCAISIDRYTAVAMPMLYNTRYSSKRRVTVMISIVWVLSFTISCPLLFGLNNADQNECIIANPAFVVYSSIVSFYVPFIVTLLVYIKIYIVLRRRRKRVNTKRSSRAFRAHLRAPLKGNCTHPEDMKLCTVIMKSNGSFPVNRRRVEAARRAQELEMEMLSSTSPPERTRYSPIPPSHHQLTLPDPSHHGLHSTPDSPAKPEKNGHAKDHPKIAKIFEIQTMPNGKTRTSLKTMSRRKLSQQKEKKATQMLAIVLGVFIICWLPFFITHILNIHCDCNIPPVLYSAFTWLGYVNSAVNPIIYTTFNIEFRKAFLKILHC", "experiment": "In vitro binding, dopamine D2 receptor", "conditions": "dihydrochloride salt; read-out: binding affinity K1"}, "[3]": {"target": "T2, brain serotonin 5-HT2 receptor (Homo sapiens, UniProt P28223)", "T2 construct": "from tissue; host or cells: brain", "T2 sequence (P28223 whole entry)": "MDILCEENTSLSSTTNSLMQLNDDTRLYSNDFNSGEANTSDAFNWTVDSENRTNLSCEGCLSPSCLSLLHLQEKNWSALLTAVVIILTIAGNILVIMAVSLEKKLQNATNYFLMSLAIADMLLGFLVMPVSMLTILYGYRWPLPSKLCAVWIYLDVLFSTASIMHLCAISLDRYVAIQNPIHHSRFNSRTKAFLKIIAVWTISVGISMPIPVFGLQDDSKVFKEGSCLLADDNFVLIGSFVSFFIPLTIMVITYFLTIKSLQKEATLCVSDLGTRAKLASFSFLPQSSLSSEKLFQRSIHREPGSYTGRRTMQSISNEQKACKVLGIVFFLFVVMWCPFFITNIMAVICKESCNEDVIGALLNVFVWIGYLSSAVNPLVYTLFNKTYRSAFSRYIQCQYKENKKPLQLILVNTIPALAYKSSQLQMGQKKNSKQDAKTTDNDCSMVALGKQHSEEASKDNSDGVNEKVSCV", "experiment": "In vitro binding, brain serotonin 5-HT2 receptor", "conditions": "dihydrochloride salt; read-out: binding affinity K1"}, "[4]": {"tested_on": "mice", "experiment": "Standard apomorphine climbing mouse assay", "type": "in vivo", "conditions": "p.o.", "description": "The methods and procedures used can be found in Warawa et al., J. Med. Chem., 2001, 44 (3), 372-389, and are incorporated herein by reference."}, "[5]": {"tested_on": "mice", "experiment": "Mouse forced swim test", "type": "in vivo", "conditions": "5.0, 10.0 and 20.0 mg/kg sc, 15 minutes prior", "description": "Methods: Mice were placed in cylinders of water (25.0° C.±1.5° C.) for 6 minutes. The amount of immobility was quantified during the last 4 minutes of each session. The experimental observer was blind to the treatment conditions. […] Imipramine 45.0 mg/kg and citalopram 15.0 mg/kg were measured as the salt and administered ip 60 minutes prior to the behavioural session."}, "[6]": {"tested_on": "mice", "experiment": "Tail suspension test", "type": "in vivo, mouse", "conditions": "30 mg/kg p.o., 60 minutes prior", "description": "Antidepressant activity of 11-piperazin-1-yldibenzo[b,f][1,4]thiazepine was assessed in mice according to the tail suspension test. As shown in the results below, 11-piperazin-1-yldibenzo[b,f][1,4]thiazepine has antidepressant activity in mice.\nIn a first experiment, mice (n=10/group) were treated with vehicle, 2.0, 5.0, or 10.0 mg/kg of 11-piperazin-1-yldibenzo[b,f][1,4]thiazepine s.c. 15 minutes prior to the test session. Mice were suspended from their tails for 7 minutes. During the last 5 minutes of the test, the duration of immobility was recorded. In a second experiment, mice (n=10/group) were treated with vehicle, 30 mg/kg 11-piperazin-1-yldibenzo[b,f][1,4]thiazepine, or 30 mg/kg fluoxetine p.o. 60 minutes prior to the test session. Mice were suspended from their tails for 7 minutes. During the last 5 minutes of the test, the duration of immobility was recorded."}}}
{"smiles": "Cl.Cl.c1ccc2c(c1)N=C(N1CCNCC1)c1ccccc1S2", "note": "[Example 2, 11-piperazin-1-yldibenzo[b,f][1,4]thiazepine, dihydrochloride salt]", "values": [{"measurement": "Ki", "setting": "[1]", "value": 1.49, "unit": "µM"}, {"measurement": "Ki", "setting": "[2]", "value": 0.234, "unit": "µM"}, {"measurement": "Ki", "setting": "[3]", "value": 0.027, "unit": "µM"}, {"measurement": "in vivo antipsychotic activity", "setting": "[4]", "value": "not found to be efficacious"}]}
{"smiles": "OCCOCCN1CCN(C2=Nc3ccccc3Sc3ccccc32)CC1", "note": "[Quetiapine, reference compound]", "values": [{"measurement": "antidepressant effect (immobility)", "setting": "[5]", "value": "no effect"}]}
{"smiles": "CNCCC(Oc1ccc(C(F)(F)F)cc1)c1ccccc1", "note": "(stereo not shown) [fluoxetine, reference compound]", "values": [{"measurement": "reduction of immobility, fraction of that of the vehicle control group", "setting": "[6]", "value": "more than ½"}, {"measurement": "duration of immobility compared to the vehicle control group", "setting": "[6]; p<0.01", "value": "significantly reduced immobility"}]}
